The test system of assay [1] is SUM149. The assay can be described thus: Cytotoxicity assay (Version 2), automated, AC50, with or without elastase. The format is cell-based. The method, then:
(§1) Cultivation of cells was performed according to standard procedures with the media recommended by the provider. The cells, in a total volume of 100 μL, were seeded in a 96-well plate with a white bottom (#3610). After a 24 h incubation period at 37° C. and […], the medium was exchanged by adding 90 μL fresh medium. The treatment started by adding the test compound in 10 μL of culture medium to the cells in triplicates. Concentrations ranging from 10^−5 M to 10^−13 M were chosen. Two identically treated sets of samples were prepared. One set was treated with the test compound alone, whereas to the second set the compound and 10 nM elastase was added followed by a 72 h incubation period at 37° C. and 5% CO2. The proliferation was detected using the MTT assay (ATCC). At the end of the incubation period the MTT reagent was added to all samples for 4 h. Lysis of the cells followed by addition of the detergent was done overnight. The formed dye was detected at 570 nm. The proliferation of untreated but otherwise identically handled cells was define as the […].
(§2) The Cytotoxicity assay (Version 2) was performed as above described. Some changes were applied as the assays were performed in an automated fashion and the IC50 values determination was changed. Here the change in metabolic activity of the cells, in percent, was calculated by normalization of the measured values to the absorbance values of medium containing wells without cells (=−100%) and the absorbance of the DMSO-treated cells (=0%). AC50 values (activity concentration at −50%) were determined by means of a 4 parameter Hill-fit using GeneData Screener software.

Assay [2] concerns 786-O. Described as above. The format is cell-based, human. On the procedure:
as §1, §2

Assay [3] concerns NCI H292. The description is as above. The format is cell-based, human. On the procedure:
as §1, §2

For assay [4], the system named is HT29. Described as above. The format is cell-based, human. On the procedure: as §1, §2
Assay [5] concerns 786-O. The assay can be described thus: Cytotoxicity in vitro in the presence and absence of elastase (MTT). The format is cell-based, human. The following applies: 786-O cells, 72 h, MTT. On the procedure:
as §1

Assay [6] relates to NCI H292. The description is as above. The format is cell-based, human. As to conditions: NCI H292 cells, 72 h, MTT. The method, then: as §1
Assay [7] has as its system HT29. The description is as above. The format is cell-based, human. The following applies: HT29 cells, 72 h, MTT. The method, then: as §1
In assay [8] the test system is SUM149. Described as above. The format is cell-based. The following applies: SUM149 cells, 72 h, MTT. On the procedure:
as §1

Setting [9] is: SUM149 cells, Version 2, with elastase, activity concentration at −50%, read-out: SUM149 AC50 +elastase.
[10] abbreviates: SUM149 cells, Version 2, without elastase, activity concentration at −50%, read-out: SUM149 AC50 −elastase.
Setting [11] is: 786-O cells, Version 2, with elastase, activity concentration at −50%, read-out: 786-O AC50 +elastase.
[12] abbreviates: 786-O cells, Version 2, without elastase, activity concentration at −50%, read-out: 786-O AC50 −elastase.
The mark [13] stands for this setting: NCI H292 cells, Version 2, with elastase, activity concentration at −50%, read-out: NCI H292 AC50 +elastase.
The mark [14] stands for this setting: NCI H292 cells, Version 2, without elastase, activity concentration at −50%, read-out: NCI H292 AC50 −elastase.
The mark [15] stands for this setting: HT29 cells, Version 2, with elastase, activity concentration at −50%, read-out: HT29 AC50 +elastase.
Where [16] appears, read: HT29 cells, Version 2, without elastase, activity concentration at −50%, read-out: HT29 AC50 −elastase.

pIC50: −log10 of the molar value. Where two headings read alike, the source gives them in different places.

As for `CCCNC(=O)Nc1cccc(S(=O)(=O)Nc2cccc([C@@H](CC(=O)O)NC(=O)Nc3ccc(NC(=O)NCCOCCOCCOCCC(=O)N[C@@H](CC(=O)O)C(=O)N4CCC[C@H]4C(=O)N[C@H](C(=O)O[C@]4(CC)C(=O)OCc5c4cc4n(c5=O)Cc5c-4nc4cc(F)c(C)c6c4c5[C@@H](N(CC)CC)CC6)C(C)C)cc3)c2)c1` [Compound 19, (1S,9S)-1-(diethylamino)-9-ethyl-5-fluoro-4-methyl-10,13-dioxo-2,3,9,10,13,15-hexahydro-1H,12H-benzo[de]pyrano[3′,4′:6,7]indolizino[1,2-b]quinolin-9-yl N-(14-{4-[({(1R)-2-carboxy-1-[3-({3-[(propylcarbamoyl)amino]benzene-1-sulfonyl}amino)phenyl]ethyl}carbamoyl)amino]anilino}-14-oxo-4,7,10-trioxa-13-azatetradecanan-1-oyl)-L-alpha-aspartyl-L-prolyl-L-valinate], the AC50 was 1.1 to 10 nM in assay [1] (setting [9]); greater than 100 nM in assay [1] (setting [10]); 1.1 to 10 nM in assay [2] (setting [11]); greater than 100 nM in assay [2] (setting [12]); 11 to 100 nM in assay [3] (setting [13]); greater than 100 nM in assay [3] (setting [14]). The concentration at half-maximal activity (AC50) in assay [4] (setting [15]) is 11 to 100 nM; in assay [4] (setting [16]) it was greater than 100 nM.

For `CCCNC(=O)Nc1cccc(S(=O)(=O)Nc2cccc([C@@H](CC(=O)O)NC(=O)Nc3ccc(NC(=O)NCCOCCOCCOCCC(=O)N[C@@H](CC(=O)O)C(=O)N4CCC[C@H]4C(=O)N[C@H](C(=O)O[C@]4(CC)C(=O)OCc5c4cc4n(c5=O)Cc5c-4nc4cc(F)c(C)c6c4c5[C@@H](N(C)C)CC6)C(C)C)cc3)c2)c1` [Compound 20, (1S,9S)-1-(dimethylamino)-9-ethyl-5-fluoro-4-methyl-10,13-dioxo-2,3,9,10,13,15-hexahydro-1H,12H-benzo[de]pyrano[3′,4′:6,7]indolizino[1,2-b]quinolin-9-yl N-(14-{4-[({(1R)-2-carboxy-1-[3-({3-[(propylcarbamoyl)amino]benzene-1-sulfonyl}amino)phenyl]ethyl}carbamoyl)amino]anilino}-14-oxo-4,7,10-trioxa-13-azatetradecanan-1-oyl)-L-alpha-aspartyl-L-prolyl-L-valinate], the AC50 is 1.1 to 10 nM in assay [1] (setting [9]); greater than 100 nM in assay [1] (setting [10]); 1.1 to 10 nM in assay [2] (setting [11]); greater than 100 nM in assay [2] (setting [12]); 1.1 to 10 nM in assay [3] (setting [13]); greater than 100 nM in assay [3] (setting [14]). Also, the values for the AC50 in assay [4] (setting [15]) and in assay [4] (setting [16]) were 11 to 100 nM and greater than 100 nM, respectively.

In the case of `CC[C@@]1(O)C(=O)OCc2c1cc1n(c2=O)Cc2c-1nc1cc(F)c(C)c3c1c2[C@@H](N(C)C)CC3` [Compound 18, (1S,9S)-1-(dimethylamino)-9-ethyl-5-fluoro-9-hydroxy-4-methyl-1,2,3,9,12,15-hexahydro-10H,13H-benzo[de]pyrano[3′,4′:6,7]indolizino[1,2-b]quinoline-10,13-dione], the AC50 in assay [1] (SUM149, read-out: SUM149 AC50 +elastase) lay within 1.1 to 10 nM; in assay [1] (SUM149, read-out: SUM149 AC50 −elastase), 1.1 to 10 nM; in assay [2] (Homo sapiens, 786-0, read-out: 786-O AC50 +elastase) it was 11 to 100 nM; in assay [2] (Homo sapiens, 786-0, read-out: 786-O AC50 −elastase) it was 11 to 100 nM; in assay [3] (Homo sapiens, NCI-H292, read-out: NCI H292 AC50 +elastase), 1.1 to 10 nM; in assay [3] (Homo sapiens, NCI-H292, read-out: NCI H292 AC50 −elastase), 1.1 to 10 nM. Besides, the AC50 in assay [4] (Homo sapiens, HT-29, read-out: HT29 AC50 +elastase) lay in the range of 1.1 to 10 nM; in assay [4] (Homo sapiens, HT-29, read-out: HT29 AC50 −elastase) it was 11 to 100 nM.

On to `CCCNC(=O)Nc1cccc(S(=O)(=O)Nc2cccc([C@@H](CC(=O)O)NC(=O)Nc3ccc(NC(=O)NCCOCCOCCOCCC(=O)N[C@@H](CC(=O)O)C(=O)N4CCC[C@H]4C(=O)N[C@H](C(=O)O[C@]4(CC)C(=O)OCc5c4cc4n(c5=O)Cc5c-4nc4cc(F)c(C)c6c4c5[C@@H](N)CC6)C(C)C)cc3)c2)c1` [Compound 4b, disodium (1S,9S)-1-amino-9-ethyl-5-fluoro-4-methyl-10,13-dioxo-2,3,9,10,13,15-hexahydro-1H,12H-benzo[de]pyrano[3′,4′:6,7]indolizino[1,2-b]quinolin-9-yl 1-{(2S)-2-(carboxylatomethyl)-17-[4-({[(1R)-2-carboxylato-1-{3-[({3-[(propylcarbamoyl)amino]phenyl}sulfonyl)amino]phenyl}ethyl]carbamoyl}amino)anilino]-4,17-dioxo-7,10,13-trioxa-3,16-diazaheptadecan-1-oyl}-L-prolyl-L-valinate], for which the pIC50 in assay [5] (with 10 nM elastase, read-out: 786-O IC50 w elastase) was 10.00 to 11.00; in assay [5] (without elastase, read-out: 786-O IC50 w/o), 7.00 to 8.00; in assay [6] (with 10 nM elastase, read-out: NCI H292 IC 50 w elastase) it was 10.00 to 11.00; in assay [6] (without elastase, read-out: NCI H292 IC 50 w/o), 8.00 to 8.96; in assay [7] (with 10 nM elastase, read-out: HT29 IC50 w elastase) it was 9.00 to 10.00; in assay [7] (without elastase, read-out: HT29 IC50 w/o) it was 7.00 to 8.00. Further, the pIC50 in assay [8] (with 10 nM elastase, read-out: SUM149 IC50 w elastase) was greater than 11.00; in assay [8] (without elastase, read-out: SUM149 IC50 w/o), 8.00 to 8.96. Also, the AC50 in assay [1] (setting [9]) was less than 1 nM; in assay [1] (setting [10]) it was 11 to 100 nM; in assay [2] (setting [11]), 1.1 to 10 nM; in assay [2] (setting [12]) it was greater than 100 nM; in assay [3] (setting [13]), 1.1 to 10 nM; in assay [3] (setting [14]), greater than 100 nM. The figures for the AC50 in assay [4] (setting [15]) and in assay [4] (setting [16]) were 1.1 to 10 nM and greater than 100 nM, respectively.

For `CCCNC(=O)Nc1cccc(S(=O)(=O)Nc2cccc([C@@H](CC(=O)O)NC(=O)Nc3ccc(NC(=O)NCCOCCOCCOCCC(=O)NCCCC[C@H](NC(=O)CCOCCOCCOCCNC(=O)Nc4ccc(NC(=O)N[C@H](CC(=O)O)c5cccc(NS(=O)(=O)c6cccc(NC(=O)NCCC)c6)c5)cc4)C(=O)NCCOCCOCCOCCC(=O)N[C@@H](CC(=O)O)C(=O)N4CCC[C@H]4C(=O)N[C@H](C(=O)O[C@]4(CC)C(=O)OCc5c4cc4n(c5=O)Cc5c-4nc4cc(F)c(C)c6c4c5[C@@H](NC(C)=O)CC6)C(C)C)cc3)c2)c1` [Compound 24], the AC50 was 1.1 to 10 nM in assay [1] (read-out: SUM149 AC50 +elastase); 11 to 100 nM in assay [1] (read-out: SUM149 AC50 −elastase); 1.1 to 10 nM in assay [2] (read-out: 786-O AC50 +elastase); greater than 100 nM in assay [2] (read-out: 786-O AC50 −elastase); 1.1 to 10 nM in assay [3] (read-out: NCI H292 AC50 +elastase); greater than 100 nM in assay [3] (read-out: NCI H292 AC50 −elastase). In addition, the half-maximal activity concentration (AC50) in assay [4] (read-out: HT29 AC50 +elastase) was 11 to 100 nM; in assay [4] (read-out: HT29 AC50 −elastase), greater than 100 nM.

For the origin of these results see patent US20250032477A1, “COMPOUNDS, PHARMACEUTICAL COMPOSITIONS, AND METHODS FOR THE TREATMENT, PREVENTION, OR MANAGEMENT OF HYPERPROLIFERATIVE DISORDERS” (VINCERX PHARMA GMBH, priority 2021, published 2025).
